Source: publication PMC11266321 (EJNMMI Radiopharmacy and Chemistry, 2024)
“And” between values parts separate entries of the source, which are not always exact repeats. Equal entries are not always repeated.

Test: Tissue distribution of radioactivity in mice
Type: in vivo, mouse
Settings: mean ± SD n = 4
Method: [^11C]MMP (8.1 MBq/17 pmol) was injected intravenously into 8-week-old male ddY mice (37.8–42.4 g). The tracer-injected mice were housed individually in filter-paper-lined animal-rearing cages until the time of euthanasia. Mice were euthanized by cervical dislocation at 1, 5, 15, 30, 60, and 90 min after injection (n = 4 each). Blood was collected by heart puncture, and the tissues were harvested. Radioactivity excreted into urine was recovered from the cage floor and by cystocentesis from the urinary bladder. The samples were measured for ^11C radioactivity with an auto-gamma counter (Hidex-AMG, Turku, Finland) and weighed. Tissue uptake of ^11C was expressed as the percentage of injected dose per organ (%ID/organ) or the percentage of injected dose per gram of tissue (%ID/g). The tissue distribution data were extrapolated to an adult male phantom using the %kg/g method (Blau [1975]). The radiation absorbed dose and effective dose for human adults were estimated using OLINDA/EXM software (Vanderbilt University, Nashville, TN) (Stabin et al. [2005]). Effective dose was estimated using the risk-weighting factor of ICRP Publication 103 (ICRP [2007]).

CC(C)NC(C)Cc1ccc([11CH3])cc1 (centres unmarked) [[^11C]MMP, N-isopropyl-4-[^11C]methylamphetamine]
Injected dose/g tissue (%), Blood (1 min after i.v. injection): 1.40 ± 0.24 %ID/g
Injected dose/g tissue (%), Bone (1 min after i.v. injection): 2.21 ± 0.54 %ID/g
Injected dose/g tissue (%), Brain (1 min after i.v. injection): 5.75 ± 0.42 %ID/g
Injected dose/g tissue (%), Heart (1 min after i.v. injection): 8.23 ± 1.30 %ID/g
Injected dose/g tissue (%), Kidney (1 min after i.v. injection): 12.93 ± 7.10 %ID/g
Injected dose/g tissue (%), Large intestine (1 min after i.v. injection): 1.92 ± 0.95 %ID/g
Injected dose/g tissue (%), Liver (1 min after i.v. injection): 1.56 ± 0.87 %ID/g
Injected dose/g tissue (%), Lung (1 min after i.v. injection): 28 %ID/g and 27.53 ± 4.66 %ID/g
Injected dose/g tissue (%), Muscle (1 min after i.v. injection): 1.77 ± 0.86 %ID/g
Injected dose/g tissue (%), Pancreas (1 min after i.v. injection): 3.96 ± 1.02 %ID/g
Injected dose/g tissue (%), Small intestine (1 min after i.v. injection): 1.49 ± 0.84 %ID/g
Injected dose/g tissue (%), Spleen (1 min after i.v. injection): 1.46 ± 0.42 %ID/g
Injected dose/g tissue (%), Stomach (1 min after i.v. injection): 2.06 ± 1.30 %ID/g
Injected dose/g tissue (%), Testis (1 min after i.v. injection): 0.96 ± 0.24 %ID/g
Injected dose/organ (%), Bladder (1 min after i.v. injection): 0.07 ± 0.05 %ID/organ
Injected dose/organ (%), Bladder + urine (1 min after i.v. injection): 0.07 ± 0.05 %ID/organ
Injected dose/organ (%), Brain (1 min after i.v. injection): 2.28 ± 0.25 %ID/organ
Injected dose/organ (%), Heart (1 min after i.v. injection): 1.56 ± 0.27 %ID/organ
Injected dose/organ (%), Kidney (1 min after i.v. injection): 7.4 %ID/organ and 7.44 ± 4.00 %ID/organ
Injected dose/organ (%), Large intestine (1 min after i.v. injection): 2.47 ± 1.19 %ID/organ
Injected dose/organ (%), Liver (1 min after i.v. injection): 2.63 ± 1.23 %ID/organ
Injected dose/organ (%), Lung (1 min after i.v. injection): 5.54 ± 0.95 %ID/organ
Injected dose/organ (%), Pancreas (1 min after i.v. injection): 0.76 ± 0.23 %ID/organ
Injected dose/organ (%), Small intestine (1 min after i.v. injection): 2.74 ± 1.46 %ID/organ
Injected dose/organ (%), Spleen (1 min after i.v. injection): 0.17 ± 0.07 %ID/organ
Injected dose/organ (%), Stomach (1 min after i.v. injection): 1.59 ± 1.06 %ID/organ
Injected dose/organ (%), Testis (1 min after i.v. injection): 0.24 ± 0.03 %ID/organ
Injected dose/organ (%), Urine (1 min after i.v. injection): 0.00 ± 0.00 %ID/organ
Injected dose/g tissue (%), Blood (5 min after i.v. injection): 1.10 ± 0.14 %ID/g
Injected dose/g tissue (%), Bone (5 min after i.v. injection): 2.20 ± 0.30 %ID/g
Injected dose/g tissue (%), Brain (5 min after i.v. injection): 6.87 ± 0.62 %ID/g
Injected dose/g tissue (%), Heart (5 min after i.v. injection): 3.53 ± 0.21 %ID/g
Injected dose/g tissue (%), Kidney (5 min after i.v. injection): 16.26 ± 1.85 %ID/g
Injected dose/g tissue (%), Large intestine (5 min after i.v. injection): 2.36 ± 0.41 %ID/g
Injected dose/g tissue (%), Liver (5 min after i.v. injection): 4.30 ± 0.84 %ID/g
Injected dose/g tissue (%), Lung (5 min after i.v. injection): 21.20 ± 1.81 %ID/g
Injected dose/g tissue (%), Muscle (5 min after i.v. injection): 2.14 ± 0.14 %ID/g
Injected dose/g tissue (%), Pancreas (5 min after i.v. injection): 8.21 ± 0.70 %ID/g
Injected dose/g tissue (%), Small intestine (5 min after i.v. injection): 3.65 ± 0.21 %ID/g
Injected dose/g tissue (%), Spleen (5 min after i.v. injection): 5.09 ± 0.59 %ID/g
Injected dose/g tissue (%), Stomach (5 min after i.v. injection): 3.24 ± 1.94 %ID/g
Injected dose/g tissue (%), Testis (5 min after i.v. injection): 1.26 ± 0.25 %ID/g
Injected dose/organ (%), Bladder (5 min after i.v. injection): 0.09 ± 0.03 %ID/organ
Injected dose/organ (%), Bladder + urine (5 min after i.v. injection): 3.51 ± 1.80 %ID/organ
Injected dose/organ (%), Brain (5 min after i.v. injection): 2.68 ± 0.33 %ID/organ
Injected dose/organ (%), Heart (5 min after i.v. injection): 0.63 ± 0.05 %ID/organ
Injected dose/organ (%), Kidney (5 min after i.v. injection): 9.5 %ID/organ and 9.54 ± 0.98 %ID/organ
Injected dose/organ (%), Large intestine (5 min after i.v. injection): 2.7 %ID/organ and 2.68 ± 0.45 %ID/organ
Injected dose/organ (%), Liver (5 min after i.v. injection): 9.53 ± 2.41 %ID/organ
Injected dose/organ (%), Lung (5 min after i.v. injection): 3.21 ± 0.65 %ID/organ
Injected dose/organ (%), Pancreas (5 min after i.v. injection): 1.70 ± 0.23 %ID/organ
Injected dose/organ (%), Small intestine (5 min after i.v. injection): 6.8 %ID/organ and 6.77 ± 0.37 %ID/organ
Injected dose/organ (%), Spleen (5 min after i.v. injection): 0.57 ± 0.05 %ID/organ
Injected dose/organ (%), Stomach (5 min after i.v. injection): 1.88 ± 0.90 %ID/organ
Injected dose/organ (%), Testis (5 min after i.v. injection): 0.32 ± 0.06 %ID/organ
Injected dose/organ (%), Urine (5 min after i.v. injection): 3.42 ± 1.82 %ID/organ
Injected dose/g tissue (%), Blood (15 min after i.v. injection): 0.72 ± 0.23 %ID/g
Injected dose/g tissue (%), Bone (15 min after i.v. injection): 1.29 ± 0.18 %ID/g
Injected dose/g tissue (%), Brain (15 min after i.v. injection): 4.83 ± 0.21 %ID/g
Injected dose/g tissue (%), Heart (15 min after i.v. injection): 1.93 ± 0.18 %ID/g
Injected dose/g tissue (%), Kidney (15 min after i.v. injection): 11.36 ± 1.39 %ID/g
Injected dose/g tissue (%), Large intestine (15 min after i.v. injection): 1.59 ± 0.62 %ID/g
Injected dose/g tissue (%), Liver (15 min after i.v. injection): 6.07 ± 1.10 %ID/g
Injected dose/g tissue (%), Lung (15 min after i.v. injection): 7.97 ± 0.89 %ID/g
Injected dose/g tissue (%), Muscle (15 min after i.v. injection): 1.22 ± 0.10 %ID/g
Injected dose/g tissue (%), Pancreas (15 min after i.v. injection): 8.55 ± 1.10 %ID/g
Injected dose/g tissue (%), Small intestine (15 min after i.v. injection): 3.29 ± 0.83 %ID/g
Injected dose/g tissue (%), Spleen (15 min after i.v. injection): 4.45 ± 0.69 %ID/g
Injected dose/g tissue (%), Stomach (15 min after i.v. injection): 4.51 ± 1.35 %ID/g
Injected dose/g tissue (%), Testis (15 min after i.v. injection): 1.63 ± 0.16 %ID/g
Injected dose/organ (%), Bladder (15 min after i.v. injection): 0.60 ± 0.32 %ID/organ
Injected dose/organ (%), Bladder + urine (15 min after i.v. injection): 13.64 ± 2.31 %ID/organ
Injected dose/organ (%), Brain (15 min after i.v. injection): 2.12 ± 0.06 %ID/organ
Injected dose/organ (%), Heart (15 min after i.v. injection): 0.33 ± 0.02 %ID/organ
Injected dose/organ (%), Kidney (15 min after i.v. injection): 7.47 ± 1.09 %ID/organ
Injected dose/organ (%), Large intestine (15 min after i.v. injection): 2.13 ± 1.04 %ID/organ
Injected dose/organ (%), Liver (15 min after i.v. injection): 15 %ID/organ and 14.98 ± 2.48 %ID/organ
Injected dose/organ (%), Lung (15 min after i.v. injection): 1.47 ± 0.10 %ID/organ
Injected dose/organ (%), Pancreas (15 min after i.v. injection): 1.74 ± 0.24 %ID/organ
Injected dose/organ (%), Small intestine (15 min after i.v. injection): 6.13 ± 1.74 %ID/organ
Injected dose/organ (%), Spleen (15 min after i.v. injection): 0.64 ± 0.12 %ID/organ
Injected dose/organ (%), Stomach (15 min after i.v. injection): 2.46 ± 0.69 %ID/organ
Injected dose/organ (%), Testis (15 min after i.v. injection): 0.45 ± 0.05 %ID/organ
Injected dose/organ (%), Urine (15 min after i.v. injection): 13.03 ± 2.51 %ID/organ
Injected dose/g tissue (%), Blood (30 min after i.v. injection): 0.62 ± 0.21 %ID/g
Injected dose/g tissue (%), Bone (30 min after i.v. injection): 0.76 ± 0.26 %ID/g
Injected dose/g tissue (%), Brain (30 min after i.v. injection): 2.63 ± 0.22 %ID/g
Injected dose/g tissue (%), Heart (30 min after i.v. injection): 1.16 ± 0.22 %ID/g
Injected dose/g tissue (%), Kidney (30 min after i.v. injection): 7.08 ± 1.91 %ID/g
Injected dose/g tissue (%), Large intestine (30 min after i.v. injection): 1.22 ± 0.63 %ID/g
Injected dose/g tissue (%), Liver (30 min after i.v. injection): 5.46 ± 0.97 %ID/g
Injected dose/g tissue (%), Lung (30 min after i.v. injection): 3.68 ± 0.50 %ID/g
Injected dose/g tissue (%), Muscle (30 min after i.v. injection): 0.78 ± 0.17 %ID/g
Injected dose/g tissue (%), Pancreas (30 min after i.v. injection): 4.58 ± 0.52 %ID/g
Injected dose/g tissue (%), Small intestine (30 min after i.v. injection): 2.14 ± 0.67 %ID/g
Injected dose/g tissue (%), Spleen (30 min after i.v. injection): 2.48 ± 0.45 %ID/g
Injected dose/g tissue (%), Stomach (30 min after i.v. injection): 2.69 ± 0.26 %ID/g
Injected dose/g tissue (%), Testis (30 min after i.v. injection): 1.69 ± 0.36 %ID/g
